Measured values from patent publication US20080299176A1, “DRUG DELIVERY DEVICE COMPRISING CROSSLINKED POLYURETHANE-SILOXANE-CONTAINING COPOLYMERS” (priority 2007, published 2008).

Test: Diffusion of FA through the copolymer membranes (Valia-Chien diffusion apparatus)
Format: physicochemical
Conditions: membrane of Example 5 composition, thickness 100 μm; PBS, 37° C.; FA 2 mg in donor cell; HPLC at 238 nm
Method: The diffusion was carried out using Valia-Chien diffusion apparatus. FA and membranes with a composition described in Example 5 were used. FA (2 mg) and PBS (3.2 mL) were added to each of the donor cells, and 3.2 mL PBS were added in each of the receptor cells. The cells were capped and the temperature was kept at 37° C. using a circulating water bath. At given time intervals, the diffusion media in the receptor cells were removed and replaced by fresh PBS. FA concentration in the release media was determined using a set of HP series 1100 HPLC instruments equipped with a degasser, a binary pump, an auto sampler and a DAD detector. The column used was an Altima C18 (5μ, 250 mm×4.6 mm). The mobile phase was 40% ACN in water and the flow rate was 1.0 mL/m in. The eluted FA was detected at 238 nm. The concentration of FA in the media was directly determined using HPLC. The diffusion rate of FA through the copolymer membranes with a thickness of 100 μm was estimated to be 1.4 μg/cm^2/hour.

diffusion rate of FA through the copolymer membranes: 1.4 μg/cm^2/hour
Structure (SMILES): CC1(C)O[C@@H]2C[C@H]3[C@@H]4C[C@H](F)C5=CC(=O)C=C[C@]5(C)[C@@]4(F)[C@@H](O)C[C@]3(C)[C@]2(C(=O)CO)O1 [FA, fluocinolone acetonide]
